Experimental data from a melting point compilation (Tetko et al.; mined from patent text by program, amines drawn as free bases though some values may be those of a salt).

SMILES | melting point
O=S(=O)(Nc1cccc(OCc2ncc3ccccc3n2)c1)C(F)(F)F | 140 to 150 °C
COc1ccc(N2C(=O)C(=CN(C)C)c3ccccc32)cc1F | 113 to 114 °C
Cc1cccc(Cl)c1NC(=O)Nc1cc(NC(C)C)ncn1 | 233 °C
Cc1ccc(Nc2nc(-c3ccc(-c4ccccn4)s3)cs2)nc1 | 197 to 199 °C
CC(=O)CN1C(=O)c2ccccc2C1=O | 92 to 94 °C
O=C(C1CCN(c2ccncn2)CC1)N1CCN(S(=O)(=O)c2ccc3cc(Cl)ccc3c2)CC1 | 218 to 219 °C
COc1cccc(C=O)c1OS(=O)(=O)c1ccccc1 | 120 to 122 °C
CCS(=O)(=O)NCC(O)(Cn1cncn1)c1ccc(Cl)cc1Cl (stereo not given) | 144 to 145 °C
Cc1ccc(C(=O)Nc2c(NC(=O)CN(C)C)ccc3c2C(=O)c2ccccc2C3=O)cc1 | 190 to 191 °C
Clc1ccc2c(c1)C(c1ccccc1)Nc1nncn1-2 (stereo not given) | 242 to 244 °C
CS(=O)(=O)Oc1cc([N+](=O)[O-])c(F)cc1Cl | 64 to 65.5 °C
CC(=O)Nc1ccc(S(=O)(=O)Nc2onc(C)c2Br)cc1 | 208 to 210 °C
CCOC(=O)c1cnc2c(c(C)nc3cc(C)nn32)c1O | 207 to 208 °C
CCOC(=O)C(=CNC1=NN(c2ccc(Cl)cc2)CC1)C(=O)OCC | 159 to 162 °C
C=C[C@H]1C(=O)N(C)[C@H](C(C)(C)C)N1C(=O)c1ccccc1 | 169 to 171 °C
FC(F)(F)c1cc(Cl)c(-n2nccc2Cl)c(Cl)c1 | 70 to 72 °C
CC(C)S(=O)(=O)C1C(=O)N(Cc2ccccc2F)C(=O)c2ccccc21 (stereo not given) | 174 to 181 °C
CS(=O)(=O)N1CC(=O)NC(=O)N1Cc1ccc(Cl)cc1 | 145 °C
CC(C)CNC1NC(=O)N(c2cccs2)C(=O)N1 | 265 to 268 °C
Cc1c(NC(=O)c2ccc(-c3ccccc3)cc2F)ccc2cc(CN3CCCCC3)cnc12 | 187 to 188 °C
CN1C(=O)C(C(=O)Nc2ccc(Cl)cc2Oc2c(Cl)cccc2Cl)C(=O)N(C)C1=S | 254 to 257 °C
CCOC(=O)c1ccc(CCNc2ncnc(CC)c2Cl)cc1 | 134 to 135 °C
O=C(O)c1ccc(OCCCCl)cc1 | 136 to 138 °C
Cn1cc(-c2cccc(C(F)(F)F)c2)c(=O)c(-c2ccc(F)cc2Cl)c1 | 183 to 186 °C
CN(Cc1ccc2c(Br)c(OCC#N)ccc2c1)C(=O)c1oc2ccccc2c1CCc1ccccc1 | 51 to 55 °C

SMILES | melting point
COc1ccc(NC(=O)Nc2ccc(Cl)c(Cl)c2)cc1NS(=O)(=O)c1cc(Cl)cc(Cl)c1 | 225 to 227 °C
CC1=C(c2cc(C)no2)C(=O)CCC1 | 104 to 105 °C
CS(=O)(=O)Nc1ccc(OC[C@@H]2CO2)cc1 | 106 to 108 °C
CC(=Cc1cccc([N+](=O)[O-])c1)C(=O)O | 201 to 202 °C
CCCCCCCCCCCCCCCCCCN(C)P1OCC2(CO1)COP(N(C)CCCCCCCCCCCCCCCCCC)OC2 (stereo not given) | 70 to 72 °C
CCCCN1C(=O)[C@@H]2[C@H](C1=O)[C@H](c1ccc(C#N)cc1)N(C(C)=O)[C@H]2C (racemic) | 140 to 141 °C
CCOC(=O)CNC(=O)c1ccc(CCC2CNc3nc(N)nc(O)c3C2)s1 (stereo not given) | 152 to 160 °C
Nc1nnc2ccc(N3CCCCC3)nn12 | 245 to 246 °C
CCOC(=O)C1=C(C)NC(C)=C(C(=O)OCCN2C(=O)c3ccccc3C2=O)C1c1cccc([N+](=O)[O-])c1 (stereo not given) | 194 to 195 °C
Nc1ccsc1[N+](=O)[O-] | 159 °C
Nc1cc(SC(F)(F)F)cc(Br)c1N | 60 to 61 °C
COCCOc1ccc(C2=NCCNC2=O)cc1 | 130 to 132 °C
CCCN(CCC)c1c([N+](=O)[O-])cc(C#N)c(C)c1[N+](=O)[O-] | 97 to 99 °C
OCc1cc2c3ccccc3ncn2n1 | 132 to 133 °C
Clc1nc2ccccc2c2[nH]cnc12 | 257 to 258 °C
O=CN1CCCN(Cc2ccc(Cl)cc2)C1=C[N+](=O)[O-] | 131 to 133 °C
CSc1ccc(C=C(C(=O)O)c2ccc(F)cc2)cc1 | 136 to 138 °C
Nc1ccc(Oc2ccc(C(=O)O)c(O)c2)cc1 | 187 to 188 °C
O[C@@H]1CN(C[C@H](O)c2ccccc2)CC[C@H]1CCOC(c1ccccc1)c1ccccc1 | 84 to 86 °C
CCCCCc1nc(N(C)C)nc(C)c1O | 61 to 62 °C
COc1ccc(C(=O)N2c3ccccc3C(N3CCCCc4ccccc43)=CC2C)cc1OC (stereo not given) | 151 to 152 °C
Cc1cc(CCCCCOc2c(Cl)cc(C(=O)O)cc2Cl)on1 | 67 to 69 °C
COc1cccc(CC(=O)Nc2cc(Cl)c(Cl)cc2[N+](=O)[O-])c1 | 122 to 124 °C
COc1ccc(N2CCN(c3c(C)c(C)c4c(c3C)C(O)(c3ccc(F)cc3)C(C)(C)O4)CC2)cc1 (stereo not given) | 142 to 144 °C
COc1ccc(-c2cn3ccc(C)cc3n2)cc1 | 157 to 160 °C

SMILES | melting point
CC12CCC1C(=O)OC2=O (stereo not given) | 59 to 60 °C
Cc1cc(C)c(Nc2nc(C)ccc2S(=O)(=O)c2ccc(C(=O)c3ccccc3)cc2)c(C)c1 | 222 to 225 °C
Cn1nc(C(=O)NCc2ccc(Cl)cc2)c(=O)c2cc(I)cnc21 | 207 to 208 °C
CCOC(=O)n1cc(F)c(N)nc1=O | 190 to 193 °C
C=CCOc1cc(C(=O)OC)cc(OCC=C)c1NC(C)=O | 135 to 137 °C
COc1ccc2c(c1)C(CC#N)CN(C(=O)OC(C)(C)C)C2 (stereo not given) | 75 to 77 °C
O=P1(c2ccccc2)NCc2ccccc21 (stereo not given) | 177 to 180 °C
CCOC(=O)c1ccc2c(Br)cccc2c1 | 52 to 54 °C
O=C(O)[C@H]1CC[C@H](N2CCC(Oc3ccc(Cl)c(Cl)c3)CC2)CC1 | 167 to 168 °C
Cc1ccccc1-n1c(-c2sc(Nc3ccccc3)nc2C)nc2ccccc2c1=O | 227 to 228 °C
COc1ccccc1N1CCc2c1c1cccc(OC)c1[nH]c2=O | 185 to 188 °C
CC(C)(CNC(=O)C(O)CO)c1ccc(C(=O)Nc2cn3cc(Cl)ccc3n2)cc1 (stereo not given) | 228 to 229 °C
O=CC(=CCl)c1ccc(Cl)cc1 | 38 °C
OC(c1ccc(Cl)cc1)(c1ccc(Cl)cc1)c1nnc[nH]1 | 233 to 234 °C
CCn1cccc1Cc1cccc(NC(N)=O)c1 | 56 to 58 °C
CCN1CCN(Cc2ccc(COc3cccc4c3CN(C3CCC(=O)NC3=O)C4=O)cc2)CC1=O (stereo not given) | 163 to 165 °C
O=C1CC(C(=O)NC(c2ccccc2)c2ccc(Cl)cc2)Oc2ccc(F)cc21 (single isomer, unassigned; (+)) | 167 °C
CC(C)C[C@H](NC(=O)OCc1ccccc1)C(=O)NCCCNC(=O)[C@H](CC(C)C)NC(=O)OCc1ccccc1 | 177 to 178 °C
CCOC(=O)c1ccc(OCc2csc3nc(C(=O)OCC)[nH]c(=O)c23)cc1 | 205 to 208 °C
N#Cc1nn(-c2c(Cl)cc(-c3ccc(C(F)(F)F)cc3)cc2Cl)c(N)c1Br | 178 to 180 °C
N#CCc1ccc(C(=O)C2CC2)cc1 | 86 to 87 °C
CC(COc1ccc(CC2SC(=O)NC2=O)cc1)NCC(O)c1cccc(C(F)(F)F)c1 (stereo not given) | 100 to 105 °C
CCOC(=O)CCc1ccc2[nH]c(-c3cccnc3)c(C)c2c1 | > 275 °C
N#Cc1cc2c(cc1O)OCC21C(=O)N(CC2CCCO2)c2ccccc21 (stereo not given) | 218 to 221 °C
CCCCC(Cc1ccc(OCCNC(=O)c2ccc(O)nc2)cc1)C(=O)O (stereo not given) | 69 to 71 °C

SMILES | melting point
OCC1OC(Sc2ccccc2)C(OCc2ccccc2)C(OCc2ccccc2)C1OCc1ccccc1 (stereo not given) | 127 to 129 °C
CC(C)c1cc(O)cc(C(C)C)c1NC(=O)CN1CCN(CCSc2nc3ccccc3[nH]2)CC1 | 241 to 242 °C
COc1cc2c(cc1C(F)(F)F)N(C(=O)Nc1ccc(CN(C)C)cc1)CC2 | 169 to 170 °C
CCOCc1nc2cnc3cc(Br)ccc3c2n1CCN1CCN(C(=O)OC(C)(C)C)CC1 | 140 to 143 °C
CS(=O)(=O)NCC1COCc2nc3c(N)nc4ccccc4c3n21 (stereo not given) | 285 to 288 °C
CC(=O)c1c(F)cc2c(=O)c(C(=O)O)cn(CCF)c2c1F | 215 to 216 °C
Cc1cc2c(C(=O)C3=C(O)C4CCC(C4)C3=O)ccc(S(C)=O)c2o1 (stereo not given) | 243 to 244 °C
N=C(NCc1c[nH]c2ccccc12)C(Cl)(Cl)Cl | 136 to 138 °C
CC1(C)C(=O)Nc2ccc(C#N)cc2N(C2CC2)C1=O | 252 to 253 °C
Cc1c(S(=O)(=O)c2ccc(=O)[nH]n2)oc2ccc(C(F)(F)F)cc12 | 244 to 245 °C
COCCCn1c(CO)cc2c3c(c(-c4ccccc4Cl)cc21)C(=O)NC3=O | 187 to 189 °C
O=C(NCc1ccn(-c2cc3[nH]c(=O)c(=O)[nH]c3cc2[N+](=O)[O-])c1)NC1CCN(Cc2ccccc2)CC1 | 234 to 237 °C
CC1=C(c2ccc(C(=O)N3Cc4ccc(C(=O)C(Cl)(Cl)Cl)n4Cc4ccccc43)cc2)CCCC1 | 171 °C
COCCNCc1cccc(OCCCNc2nc(N)nn2C)c1 | 61 to 62.5 °C
O=c1ccc2cnc(Nc3ccccn3)nc2n1C1CCCC1 | > 250 °C
Cc1ccc(NC(N)=S)c(O)c1 | 175 to 177 °C
CC(C)[C@H](NC(=O)CN1CCN(CC(=O)O)C1=O)C(=O)N1CCC[C@H]1C(=O)N[C@H](C(=O)C(F)(F)F)C(C)C | 177 to 178 °C
Cc1nccn1-c1nc(-c2ccc(Cl)cc2)c(CCO)o1 | 159 to 160 °C
CC(CCN1c2cccc3cccc(c23)S1(=O)=O)N1CCN(c2ccc(F)cc2)CC1 (stereo not given) | 122 °C
CC(=O)NC[C@H]1CN(c2ccc(N3CCC(F)(CI)CC3)c(F)c2)C(=O)O1 | 166 to 168 °C
CS(=O)(=O)c1ccc(-n2nc(C(F)(F)F)cc2-c2nc3cccc(F)c3s2)cc1 | 186 to 188 °C
CN1CCCC2(CCn3c(c(C4=C(c5cn(C)c6ccccc56)C(=O)NC4=O)c4ccccc43)C2)C1 (stereo not given) | 144 to 146 °C
CCCCCCC(C)Oc1ccc(C(=O)O)cc1C#N (stereo not given) | 98.1 to 99.9 °C
CC1(C)CCC(C)(C)c2cc(-c3cc(-c4ccc(C(=O)N5CCOCC5)cc4)ccc3-c3ccccc3)ccc21 | 223 °C
CN(C)S(=O)(=O)n1c(C(F)(F)F)nc2c(Br)cc(C(F)(F)F)cc21 | 147 °C
